Laboratory results reported in patent US4000293A, “Method of inhibiting bacterial growth with certain selected 3-chloro-2-oxazolidinones” (Interx Research Corporation, priority 1975, dated 1976).
Read-outs that look alike come from different tables or passages of the source.

How the values were obtained:
[1] = hydrolytic stability in 0.1M sodium dihydrogen phosphate pH 7.0 at 40° (first-order kinetics), Table C; assay type: physicochemical; settings: for half-life: 0.1m phosphate buffer; for half-life / Rate Constant k: 0.1M phosphate pH 7.0, 40°; for Rate Constant k: first-order
Procedure: A further measure of the relative stabilities of the reference and claimed species was obtained by measuring the hydrolytic stability of the various species in 0.1M sodium dihydrogen phosphate buffered to pH 7.0 at 40°. For each species, the rate of change in the concentration of positive chlorine in the solution was measured by the volume of standard thiosulfate required to titrate a series of aliquots of a standard volume of the solution at various time intervals using potassium iodide/sodium thiosulfate as detailed above. The volumes of thiosulfate required to titrate each sample so obtained were interpreted as first-order kinetic processes. The hydrolytic stabilities of the reference and claimed species under the experimental conditions were characterized by the reaction rate constants and half-lives obtained from a linear regression analysis of the experimental data. The results obtained are given in Table C below and are also shown in FIG. 1 where the volumes in milliliters of standard thiosulfate required to titrate the positive chlorine in the various samples are plotted as ordinate against time in days as abscissa.

[2] = tested on: Staphylococcus aureus ATCC 6538; assay: germicidal efficiency test (modified serial dilution; time to complete sterilization), Table A; assay type: cell-based; settings: pH 7.0
Procedure: The compounds are thus useful as bactericidal agents.
(§1) The compounds of the invention and certain reference compounds were tested in the germidical efficiency test, a modification of the standard serial dilution test, against Staphylococcus aureus ATCC 6538. In the germicidal efficiency test, instead of determining the minimum inhibitory concentration as in the serial dilution test procedure, the time required to effect complete sterilization of the micro-organism when exposed to a given concentration of the test substance is determined. This procedure affords a basis of comparison of the time dependent efficacies of the various test substances which gives a measure not only of the germidical efficacy of the test species but, since as will be seen germicidal efficiency of the N-chloro compounds generally tends to diminish with time, apparently owing to decomposition of, and therefore dilution of, the active species, the test procedure also provides an indication of the efficacy to be expected at varying time intervals after solution of the test species in the application medium. The test procedure is described as follows: A stock solution of known concentration of each compound to be tested was prepared in 0.1M sodium dihydrogen phosphate buffered to pH 7.0. To 5 ml. of the test solution was added 0.2 ml. of an overnight broth culture containing from 6×10^6 to 8×10^6 organisms/ml. of Staphylococcus aureus ATCC 6538 and 5 g. of gelysate peptone and 3 g. of beef extract per 1000 ml. of water. At time intervals of 0.5, 1, 2, 3, 4, 5, 6, 7, 8, 9, 10, 15 and 30 minutes, a loop of this suspension was subcultured into 5 ml. of sterile nutrient broth (5 g. of gelysate peptone and 3 g. of beef extract/1000 ml. of water), and the samples were incubated at 37° C. for 7 days with daily observation for evidence of bacterial growth. The time interval in which no bacterial growth was observed after the incubation period in a particular sample was recorded as the end point.
(§2) The germicidal kill times so-obtained at various concentrations of the compounds of the invention and of certain reference compounds are given in Table A below. The compounds are identified in each case by the Example number above where the compounds are described. Here and elsewhere in the specification that follows, concentrations are expressed in parts per million (ppm) of "positive" chlorine, which was determined in each instance by addition of excess aqueous potassium iodide to an acidified solution of the test compound and titration of the iodine liberated with standard sodium thiosulfate solution.

[3] = positive chlorine concentration before and after 14 day incubation of solutions at pH 7.0, 40° C., Table B; assay type: physicochemical; settings: for decomposition over the test period (in words): 14 days, 40° C., pH 7.0; for Final Concn. of positive chlorine: after 14 day incubation at 40° C.; for Final Concn. of positive chlorine / Initial Concn. of positive chlorine: 0.1M phosphate pH 7.0; for Initial Concn. of positive chlorine: before incubation
Procedure: as §2
(§3) The stabilities and the time-dependent efficacies of the claimed and reference species were determined by comparing the contact germicidal times and the initial and final concentrations of positive chlorine in solutions of the test species in 0.1M sodium dihydrogen phosphate buffered to pH 7.0 before and after 14 day incubation of the solutions at 40° C. The results are given in Table B below, where the columns headed "Bc Time" refers to the bactericidal time in minutes.

[4] = tested on: Staphylococcus aureus ATCC 6538; assay: contact germicidal (bactericidal) time before and after 14 day incubation of solutions at 40° C., Table B; assay type: cell-based; settings: pH 7.0; for Bc Time, final: after 14 day incubation at 40° C.; for bactericidal activity after the test period (in words): after 14 days at 40° C.; for Bc Time, initial: before incubation, at initial ppm +Cl of the same line
Procedure: as §1, §3

[5] = stability in the neat state (% chlorine by iodometric titration), Table D; assay type: physicochemical
Procedure: In those instances, the data were acquired at ambient temperature (approximately 23° C.). The method used was similar to that described above in which the rate of disappearance of "positive" chlorine was followed iodometrically by titration of iodine liberated from added potassium iodide with standard sodium thiosulfate solution. Samples of the compounds were individually sealed in ampoules and stored in the dark at 23° C. or 40° C. and weighed amounts removed from time to time for analysis.
For each of the compounds analyzed as indicated above, percent chlorine was plotted as ordinate against time in days as abscissa on semi-logarithmic paper and the points connected by a smooth curve for each compound.

CC1(C)COC(=O)N1Cl [Example 1F, 3-Chloro-4,4-dimethyl-2-oxazolidinone]
half-life ([1]; hydrolysis): 2040 h
Rate Constant k ([1]; hydrolysis): 0.00034 h⁻¹
hydrolytic stability (in words) ([1]; pH 7.0, 40°): unusual stability
Bactericidal Time ([2]; 148 ppm +Cl): 5 min
Bactericidal Time ([2]; 195 ppm +Cl): 5 min
Bactericidal Time ([2]; 368 ppm +Cl): 3 min
Bactericidal Time ([2]; 508 ppm +Cl): 2 min
decomposition over the test period (in words) [3]: decomposed only slightly over the test period
Final Concn. of positive chlorine [3]: 527 ppm +Cl
Initial Concn. of positive chlorine [3]: 534 ppm +Cl
Bc Time, final [4]: 2 min
bactericidal activity after the test period (in words) [4]: retained the original level of bactericidal activity
Bc Time, initial [4]: 2 min
% Cl, neat ([5]; 40° C., 0 Days): 23.4%
% Cl, neat ([5]; 40° C., 1 Day): 23.0%
% Cl, neat ([5]; 40° C., 2 Days): 23.8%
% Cl, neat ([5]; 40° C., 7 Days): 23.5%
% Cl, neat ([5]; 40° C., 35 Days): 24.2%
% Cl, neat ([5]; 40° C., 49 Days): 23.3%
stability in the neat state (in words) ([5]; neat, 40° C.): surprising stability

CCC1(C)COC(=O)N1Cl (stereo not shown) [Example 1H, 3-Chloro-4-ethyl-4-methyl-2-oxazolidinone]
decomposition over the test period (in words) [3]: decomposed only slightly over the test period
Final Concn. of positive chlorine [3]: 553 ppm +Cl
Initial Concn. of positive chlorine [3]: 555 ppm +Cl
Bc Time, final [4]: 3 min
bactericidal activity after the test period (in words) [4]: retained the original level of bactericidal activity
Bc Time, initial [4]: 3 min
stability in the neat state (in words) [5]: surprising stability
% Cl, neat ([5]; 40° C., 0 Days): 21.7%
% Cl, neat ([5]; 40° C., 2 Days): 23.6%
% Cl, neat ([5]; 40° C., 5 Days): 21.1%
% Cl, neat ([5]; 40° C., 10 Days): 20.7%
% Cl, neat ([5]; 40° C., 14 Days): 21.0%
% Cl, neat ([5]; 40° C., 18 Days): 20.6%
% Cl, neat ([5]; 40° C., 25 Days): 18.2%
% Cl, neat ([5]; 40° C., 39 Days): 22.3%
% Cl, neat ([5]; 40° C., 53 Days): 20.2%
% Cl, neat ([5]; 40° C., 164 Days): 19.6%

CC1COC(=O)N1Cl (stereo not shown) [Example 1B, 3-Chloro-4-methyl-2-oxazolidinone]
half-life ([1]; hydrolysis): 10.9 h
Rate Constant k ([1]; hydrolysis): 0.0633 h⁻¹
Bactericidal Time ([2]; 131 ppm +Cl): 7 min
Bactericidal Time ([2]; 303 ppm +Cl): 4 min
Bactericidal Time ([2]; 610 ppm +Cl): 1 min
Final Concn. of positive chlorine [3]: 14 ppm +Cl
Initial Concn. of positive chlorine [3]: 610 ppm +Cl
Bc Time, final [4]: > 30 min
Bc Time, initial [4]: 1 min
% Cl, neat ([5]; 23° C., 0 Hrs.): 26.5%
% Cl, neat ([5]; 23° C., 3 Hrs.): 25.9%
% Cl, neat ([5]; 23° C., 5 Hrs.): 25.3%
% Cl, neat ([5]; 23° C., 6.5 Hrs.): 25.0%
% Cl, neat ([5]; 23° C., 9 Hrs.): 25.0%
% Cl, neat ([5]; 23° C., 10.5 Hrs.): 24.1%
% Cl, neat ([5]; 23° C., 21.5 Hrs.): 21.7%
% Cl, neat ([5]; 23° C., 24.5 Hrs.): 21.1%
% Cl, neat ([5]; 23° C., 29 Hrs.): 14.4%
% Cl, neat ([5]; 23° C., 30 Hrs.): 12.4%
% Cl, neat ([5]; 23° C., 32 Hrs.): 6.1%
% Cl, neat ([5]; 23° C., 35 Hrs.): 2.0%
% Cl, neat ([5]; 23° C., 45 Hrs.): 0%

CC1CN(Cl)C(=O)O1 (stereo not shown) [Example 1D, 3-Chloro-5-methyl-2-oxazolidinone]
Bactericidal Time ([2]; 74 ppm +Cl): > 30 min
Bactericidal Time ([2]; 383 ppm +Cl): 2 min
Bactericidal Time ([2]; 548 ppm +Cl): 0.5 min
Final Concn. of positive chlorine [3]: 34 ppm +Cl
Initial Concn. of positive chlorine [3]: 548 ppm +Cl
Bc Time, final [4]: > 30 min
Bc Time, initial [4]: 0.5 min

CCC1CN(Cl)C(=O)O1 (stereo not shown) [Example 1E, 3-Chloro-5-ethyl-2-oxazolidinone]
Bactericidal Time ([2]; 96 ppm +Cl): 6 min
Bactericidal Time ([2]; 161 ppm +Cl): 2 min
Bactericidal Time ([2]; 372 ppm +Cl): 3 min
Bactericidal Time ([2]; 535 ppm +Cl): 1 min
Final Concn. of positive chlorine [3]: 15 ppm +Cl
Initial Concn. of positive chlorine [3]: 535 ppm +Cl
Bc Time, final [4]: > 30 min
Bc Time, initial [4]: 1 min

O=C1OCCN1Cl [Example 1A, 3-chloro-2-oxazolidinone]
half-life ([1]; hydrolysis): 45 h
Rate Constant k ([1]; hydrolysis): 0.0155 h⁻¹
Bactericidal Time ([2]; 157 ppm +Cl): 7 min
Bactericidal Time ([2]; 281 ppm +Cl): 2 min
Bactericidal Time ([2]; 465 ppm +Cl): 1 min
Final Concn. of positive chlorine [3]: 30 ppm +Cl
Initial Concn. of positive chlorine [3]: 465 ppm +Cl
Bc Time, final [4]: > 30 min
Bc Time, initial [4]: 1 min
% Cl, neat ([5]; 40° C., 0 Hrs.): 28.9%
% Cl, neat ([5]; 40° C., 2 Hrs.): 27.4%
% Cl, neat ([5]; 40° C., 18.5 Hrs.): 25.9%
% Cl, neat ([5]; 40° C., 24 Hrs.): 26.9%
% Cl, neat ([5]; 40° C., 54 Hrs.): 27.2%
% Cl, neat ([5]; 40° C., 72 Hrs.): 24.8%
% Cl, neat ([5]; 40° C., 80 Hrs.): 23.5%
% Cl, neat ([5]; 40° C., 98 Hrs.): 26.2%
% Cl, neat ([5]; 40° C., 144 Hrs.): 8.7%
% Cl, neat ([5]; 40° C., 168 Hrs.): 0.4%

CC1(C)CN(Cl)C(=O)O1 [Example 1G, 3-Chloro-5,5-dimethyl-2-oxazolidinone]
half-life ([1]; hydrolysis): 86.6 h
Rate Constant k ([1]; hydrolysis): 0.008 h⁻¹
half-life relative to the half-lives of the reference species ([1]; hydrolysis, pH 7.0, 40°): around twice to eight times as great
hydrolytic stability (in words) ([1]; pH 7.0, 40°): somewhat less stable than the corresponding 4,4-dimethyl compound
Bactericidal Time ([2]; 473 ppm +Cl): 7 min
decomposition over the test period (in words) [3]: substantially decomposed over the test period
Final Concn. of positive chlorine [3]: 43 ppm +Cl
Initial Concn. of positive chlorine [3]: 473 ppm +Cl
bactericidal activity after the test period (in words) [4]: retained a good measure of bactericidal activity superior to each of the reference species
Bc Time, initial [4]: 7 min
% Cl, neat ([5]; 40° C., 0 Days): 19.6%
% Cl, neat ([5]; 40° C., 1 Day): 22.1%
% Cl, neat ([5]; 40° C., 4 Days): 23.7%
% Cl, neat ([5]; 40° C., 7 Days): 16.5%
% Cl, neat ([5]; 40° C., 11 Days): 18.1%
% Cl, neat ([5]; 40° C., 15 Days): 14.4%
% Cl, neat ([5]; 40° C., 19 Days): 10.0%
% Cl, neat ([5]; 40° C., 22 Days): 0%
stability in the neat state (in words) ([5]; neat, 40° C.): surprising stability
